Reference: US12668646B2, “Cross-linking compounds and methods of use thereof” (North Carolina State University, priority 2019, dated 2026)
Several values for one entry are separate records, joined by “and”; a condition that tells them apart may be missing. Identical values can stand only once.

System: β-glucosidase from almonds
Assay: Indigogenic reaction with β-glucosidase from almonds
Type: biochemical
[1] = indoxyl 1 mM, enzyme 1 unit/mL, 0.01M acetate buffer pH 5, 5% DMF, 37° C., 16-19 h, ϵ = 1.27 × 10^4 M^−1 cm^−1 measured for 4

| Yield (%) β-glucosidase from almonds [1] | Compound | Yield (%) β-glucosidase from almonds (as E1 but ϵ = 2.00 × 10^4 M^−1 cm^−1 reported for 5,5′-dibromo-4,4′-dichloroindigo) |
| --- | --- | --- |
| <1% | COC(=O)COc1ccc2[nH]cc(O[C@@H]3O[C@H](CO)[C@@H](O)[C@H](O)[C@H]3O)c2c1 [Compound 22, 5-(Methoxycarbonyl)methoxy-1H-indol-3-yl β-D-glucopyranoside] |  |
| <5% | C#CCOc1ccc2[nH]cc(O[C@@H]3O[C@H](CO)[C@@H](O)[C@H](O)[C@H]3O)c2c1 [Compound 25, 5-Propargyloxy-1H-indol-3-yl β-D-glucopyranoside] |  |

Further lines, the compound ahead of its results:

| Compound | Yield (%) β-glucosidase from almonds [1] | Yield (%) β-glucosidase from almonds (as E1 but ϵ = 2.00 × 10^4 M^−1 cm^−1 reported for 5,5′-dibromo-4,4′-dichloroindigo) |
| --- | --- | --- |
| 5-bromo-4-chloroindoxyl β-glucoside [Compound 42, reference compound] |  | 74% and 74^e % |
| COC(=O)COc1ccc2[nH]cc(O[C@@H]3O[C@H](CO)[C@@H](O)[C@H](O)[C@H]3O)c2c1Br [Compound 23, 4-Bromo-5-(methoxycarbonyl)methoxy-1H-indol-3-yl β-D-glucopyranoside] | 68% |  |
| C#CCOc1ccc2[nH]cc(O[C@@H]3O[C@H](CO)[C@@H](O)[C@H](O)[C@H]3O)c2c1Br [Compound 26, 4-Bromo-5-propargyloxy-1H-indol-3-yl β-D-glucopyranoside] | 56% |  |
